These results are taken from patent US20230391841A1, “MACROCYCLIC PEPTIDES” (Herantis Pharma OYJ, priority 2019, published 2023).

Data set [1] has as its system dopaminergic TH-positive neurons injured with MPP+. Description: Neuroprotective effect on dopaminergic TH-positive neurons injured with MPP+ (primary mesencephalic culture). It counts as cell-based, rat. The following applies: MPP+ injured TH-positive neurons. How it is done: Neuroprotective effects of compounds 1-26 (SEQ ID NO: 1-26) were tested in an in vitro model in which primary cultures of rat embryonic mesencephalic neurons were stressed with MPP+ , the active metabolite of neurotoxin 1-methyl-4-phenyl-1,2,3,6-tetrahydropyridine (MPTP). MPP+ kills dopaminergic (TH-positive) neurons via a variety of toxic mechanisms, including mitochondrial dysfunction, generation of peroxynitrite, oxidative stress, ER stress and induction of apoptosis.
Culture of mesencephalic neurons. Rat dopaminergic neurons were cultured as described by Visanji et al., 2008. Briefly, the midbrains obtained from 15-day-old rat embryos (Janvier, France) were dissected, and the ventral portion of the mesencephalic flexure, a region of the developing brain rich in dopaminergic neurons, was used for the cell preparations. The midbrain cells were dissociated by trypsinization for 20 min at 37° C. (solution at a final concentration of 0.05% trypsin and 0.02% EDTA). The reaction was stopped by adding Dulbecco's modified Eagle's medium (DMEM) containing DNAase I grade II (0.5 mg/mL) and 10% of fetal calf serum (FCS). Cells were then mechanically dissociated by 3 passages through a 10 ml pipette. Cells were then centrifuged at 180×g for 10 min at +4° C. on a layer of BSA (3.5%) in L15 medium. The cell pellets were re-suspended in a defined culture serum-free medium consisting of Neurobasal (Invitrogen) supplemented with B27 (2%), L-glutamine (2 mM) and 2% of PS solution and 1Ong/ml of Brain-derived neurotrophic factor (BDNF) and 1 ng/mL of Glial-Derived Neurotrophic Factor (GDNF). Viable cells were counted in a Neubauer cytometer using the trypan blue exclusion test. The cells were seeded at a density of 40 000 cells/well in 96 well-plates (pre-coated with poly-L-lysine) and maintained in a humidified incubator at 37° C. in 5% CO2/95% air atmosphere. Half of the medium was changed every 2 days with fresh medium. On 96-wells plates, only 60 wells are used. To avoid any edge effect, the first and last lines and columns were not used for culture and were filled with sterile water.
CDNF as well as linear and macrocyclic compounds […] (SEQ ID NOs: 1-26) were tested. On day 6 of culture, the compounds were dissolved in culture medium and then pre-is incubated with mesencephalic neurons for 4 hours before the MPP+ application. Four hours after the preincubation of the compounds, MPP+ was added to a final concentration of 4 pM, diluted in control medium still in presence of compounds for 48 h.
48 h after intoxication, the cells were fixed by a solution of 4% paraformaldehyde in PBS, pH 7.3 for 20 min at room temperature. The cells were washed twice in PBS, and then permeabilized and non-specific sites were blocked with a solution of PBS containing 0.1% of saponin and 1% FCS for 15 min at room temperature. Next, the cells were incubated with (a) a monoclonal antibody anti-Tyrosine Hydroxylase (TH) produced in mouse at dilution of 1:10000 and with (b) a polyclonal antibody anti-alpha-synuclein (α-syn) antibody produced in rabbit at dilution of 1:400 in PBS containing 1% FCS, 0.1% saponin, for 2 h at room temperature.
48 h after intoxication, the cell culture supernatant was removed, and the cells fixed by a solution of 4% paraformaldehyde in PBS, pH 7.3 for 20 min at room temperature. The cells were washed twice in PBS, and then permeabilized and non-specific sites were blocked with a solution of PBS containing 0.1% of saponin and 1% FCS for 15 min at room temperature. Then, the cells were incubated with a) a monoclonal Anti-Tyrosine Hydroxylase (TH) antibody produced in mouse at dilution of 1:10000 in PBS containing 1% FCS, 0.1% saponin, for 2 hours at room temperature, and b) a polyclonal anti-postsynaptic density protein-95 (PSD-95) antibody produced in rabbit at dilution of 1:200 in PBS containing 1% FCS, 0.1% saponin, for 2 h at room temperature. This antibody stains specifically synapses. […]

The subject of a further data set is rat hepatocytes. Description: In vitro metabolic stability in rat hepatocytes. Format: in vitro ADME. The following applies: 1 μM, 37° C., up to 60 min. How it is done:
The linear or macrocyclic compounds 1-14 and 23-26 (SEQ ID NOs: […]) were incubated in concentration 1 μM with pooled cryopreserved rat hepatocytes (Sprague-Dawley, male; 400 pl, 1.0 million viable cells/ml for compounds 1-8, 11-12 and 23-26 or 100 μl, 0.1 million viable cells/ml for compounds 9-10 and 13-14) for different time points (0, 10, 20, 40 or 60 min) at 37° C. The cell density and viability were determined by trypan blue exclusion method. The incubation was terminated by acetonitrile. The collected samples were centrifuged for 20 min at 2272×g and analyzed. The samples were analyzed is by UHPLC/PDA with high resolution mass spectrometry (QE-Orbitrap-MS on DDI mode) (compounds 1-8, 11-12 and 23-26) or HHPLC-ToF mass spectrometry (for compounds 9-and 13-14) to monitor disappearance of the compound. Verapramil 1 μM was used as a disappearance rate control. The analytical method was optimized by using the parent compounds for optimum chromatographic properties (peak shape and retention) and mass spectrometric ionization. The Ion chromatograms were extracted from the total ion chromatograms using calculated monoisotopic accurate masses with 5 mDa window. Disappearance was based on LC/MS peak areas, marking 0 min as 100%. The first-order rate constants k (min-1) of the metabolism were obtained from the slope of time versus logarithm (% of remaining compound) plot using Excel software. The in vitro half-life (t1/2) of study compound is defined as: t1/2In2/k. Calculated half-life is based on compound disappearance in rat liver hepatocytes.

The structures appear in SMILES notation. Bridge positions count the residues as written; N and C are the ends. Peptide text beside a SMILES is read from it.

As to `CC[C@H](C)[C@@H]1NC(=O)[C@H](CCC(N)=O)NC(=O)[C@H](CCCCN)NC(=O)[C@H](CC(C)C)NC(=O)[C@H](CCC(=O)O)NC(=O)[C@H](C)NC(=O)[C@H](C(C)C)NC(=O)[C@H](CCCNC(=N)N)NC(=O)[C@H](CCSC)NC(=O)[C@H](CCCCN)NC(=O)[C@H](CCC(=O)O)NC(=O)[C@H](C)NC(=O)[C@@H]2CSSC[C@H](NC(=O)[C@H](CCC(=O)O)NC(=O)[C@H](CCC(=O)O)NC(=O)CNC(=O)[C@H](Cc3c[nH]c4ccccc34)NC(=O)[C@H](CO)NC(=O)[C@H](Cc3c[nH]cn3)NC(=O)[C@H](CC(C)C)NC1=O)C(=O)N[C@@H](CCCNC(=N)N)C(=O)N[C@@H](C)C(=O)N2` [Compound 6] (cyclo(ACAEKMRVAELKQILHSWGEECR); disulfide 2-22), the “potency of macrocyclic peptide versus its linear counterpart” value in data set [1] is on record as “comparable”. The “stability in rat hepatocytes as compared to linear counterpart” value (shortened to “stability … compared to linear counterpart”) in the data set with rat hepatocytes is listed as “significantly improved stability”.

`C[C@@H]1NC(=O)[C@@H]2CSSC[C@H](NC(=O)[C@H]([C@@H](C)O)NC(=O)[C@H](CCC(=O)O)NC(=O)CNC(=O)[C@H](Cc3c[nH]c4ccccc34)NC(=O)[C@H](CO)NC(=O)[C@H](CCCCN)NC(=O)[C@H](CCC(=O)O)NC1=O)C(=O)N[C@@H](CCCCN)C(=O)NCC(=O)N2` [Compound 14, WGETCKGCAEKS] (cyclo(AEKSWGETCKGC); disulfide 9-12): the “potency of macrocyclic peptide versus its linear counterpart” value in data set [1] was “comparable”. For the same compound, the “stability … compared to linear counterpart” value in the data set with rat hepatocytes was “significantly improved stability”.

As for `C[C@@H]1NC(=O)[C@@H]2CSSC[C@H](NC(=O)[C@H](CCC(=O)O)NC(=O)[C@H](CCC(=O)O)NC(=O)CNC(=O)[C@H](Cc3c[nH]c4ccccc34)NC(=O)[C@H]([C@@H](C)O)NC(=O)[C@H](CCCCN)NC(=O)[C@H](CCC(=O)O)NC1=O)C(=O)N[C@@H](CCCNC(=N)N)C(=O)N[C@@H](C)C(=O)N2` [Compound 12, WGEECRACAEKT] (cyclo(ACAEKTWGEECR); disulfide 2-11), the “potency of macrocyclic peptide versus its linear counterpart” value in data set [1] is on record as “comparable”. Also, the “stability … compared to linear counterpart” value in the data set with rat hepatocytes is “significantly improved stability”.

For the compound `CC[C@H](C)[C@@H]1NC(=O)[C@H](CO)NC(=O)[C@H](CCCCN)NC(=O)[C@H](CCC(=O)O)NC(=O)[C@H](C)NC(=O)[C@@H]2CSSC[C@H](NC(=O)[C@H]([C@@H](C)O)NC(=O)[C@H](CCC(=O)O)NC(=O)CNC(=O)[C@H](Cc3c[nH]c4ccccc34)NC(=O)[C@H](CC(=O)O)NC(=O)[C@H](CC(=O)O)NC(=O)[C@H](CC(C)C)NC1=O)C(=O)N[C@@H](CCCCN)C(=O)NCC(=O)N2` [Compound 10, KSILDDWGETCKGCAE] (cyclo(AEKSILDDWGETCKGC); disulfide 13-16), the “potency of macrocyclic peptide versus its linear counterpart” value in data set [1] is “comparable”. In the data set on rat hepatocytes, the “stability … compared to linear counterpart” value was “significantly improved stability”.

For the compound `C[C@@H]1NC(=O)[C@@H]2CSSC[C@H](NC(=O)[C@H]([C@@H](C)O)NC(=O)[C@H](CCC(=O)O)NC(=O)CNC(=O)[C@H](Cc3c[nH]c4ccccc34)NC(=O)[C@H](CO)NC(=O)[C@H](CCCCN)NC(=O)[C@H](CCC(=O)O)NC1=O)C(=O)N[C@@H](CCCCN)C(=O)NCC(=O)NCC(=O)N2` [Compound 26, WGETCKGGCAEKS] (cyclo(AEKSWGETCKGGC); disulfide 9-13), the “potency of macrocyclic peptide versus its linear counterpart” value in data set [1] is “comparable”. In the data set on rat hepatocytes, the “stability … compared to linear counterpart” value is “significantly improved stability”.

For `CC[C@H](C)[C@@H]1NC(=O)[C@H](CCCCN)NC(=O)[C@H](CCCCN)NC(=O)[C@H](CC(C)C)NC(=O)[C@H](CCC(=O)O)NC(=O)[C@H](CCCCN)NC(=O)[C@H](C(C)C)NC(=O)[C@H](CCCNC(=N)N)NC(=O)[C@H](CC(C)C)NC(=O)[C@H](CCCCN)NC(=O)[C@H](CCC(=O)O)NC(=O)[C@H](C)NC(=O)[C@@H]2CSSC[C@H](NC(=O)[C@H]([C@@H](C)O)NC(=O)[C@H](CCC(=O)O)NC(=O)CNC(=O)[C@H](Cc3c[nH]c4ccccc34)NC(=O)[C@H](CC(=O)O)NC(=O)[C@H](CC(=O)O)NC(=O)[C@H](CC(C)C)NC1=O)C(=O)N[C@@H](CCCCN)C(=O)NCC(=O)N2` [Compound 8] (cyclo(AEKLRVKELKKILDDWGETCKGC); disulfide 20-23), the “potency of macrocyclic peptide versus its linear counterpart” value in data set [1] was “comparable”. In addition, the “stability … compared to linear counterpart” value with rat hepatocytes is “significantly improved stability”.

Regarding `CC[C@H](C)[C@@H]1NC(=O)[C@H](CCC(N)=O)NC(=O)[C@H](CCCCN)NC(=O)[C@H](CC(C)C)NC(=O)[C@H](CCC(=O)O)NC(=O)[C@H](C)NC(=O)[C@H](C(C)C)NC(=O)[C@H](CCCNC(=N)N)NC(=O)[C@H](CCSC)NC(=O)[C@H](CCCCN)NC(=O)[C@H](CCCNC(=N)N)NC(=O)[C@H](CC(C)C)NC(=O)[C@H](CC(=O)O)NC(=O)[C@H](C(C)C)NC(=O)[C@H](CCC(=O)O)NC(=O)[C@H](C)NC(=O)[C@@H]2CSSC[C@H](NC(=O)[C@H](CCC(=O)O)NC(=O)[C@H](CCC(=O)O)NC(=O)CNC(=O)[C@H](Cc3c[nH]c4ccccc34)NC(=O)[C@H](CO)NC(=O)[C@H](Cc3c[nH]cn3)NC(=O)[C@H](CC(C)C)NC1=O)C(=O)N[C@@H](CCCNC(=N)N)C(=O)N[C@@H](C)C(=O)N2` [Compound 2] (cyclo(ACAEVDLRKMRVAELKQILHSWGEECR); disulfide 2-26), in data set [1], the “potency of macrocyclic peptide versus its linear counterpart” value is listed as “comparable”. In addition, the “stability … compared to linear counterpart” value in the data set on rat hepatocytes is on record as “significantly improved stability”.

For the compound `C[C@@H]1NC(=O)CNC(=O)[C@H](CCCNC(=N)N)NC(=O)[C@@H]2CSSC[C@H](NC1=O)C(=O)N[C@@H](C)C(=O)N[C@@H](CCC(=O)O)C(=O)N[C@@H](CCCCN)C(=O)N[C@@H]([C@@H](C)O)C(=O)N[C@@H](Cc1c[nH]c3ccccc13)C(=O)NCC(=O)N[C@@H](CCC(=O)O)C(=O)N[C@@H](CCC(=O)O)C(=O)N2` [Compound 24, WGEECRGACAEKT] (cyclo(ACAEKTWGEECRG); disulfide 2-11), the “potency of macrocyclic peptide versus its linear counterpart” value in data set [1] is reported as “comparable”. Also, the “stability … compared to linear counterpart” value in the data set with rat hepatocytes was “significantly improved stability”.
